Test results as given in ChEMBL document CHEMBL1148105, “Bioactive metabolites from a marine-derived strain of the fungus Emericella variecolor” (2002).

Columns and labels:
Format in all cases: functional
Enterococcus faecalis = assay: Antimicrobial activity against Enterococcus faecalis
Staphylococcus aureus = assay: Antimicrobial activity against Staphylococcus aureus
Escherichia coli = assay: Antimicrobial activity against Escherichia coli
Bacillus subtilis = assay: Antimicrobial activity against Bacillus subtilis

Measured: MIC

C/C=C/C1=CC(=O)[C@@H](O)[C@@H]1O [TERREIN]
50 µg/mL: Enterococcus faecalis | Staphylococcus aureus | Escherichia coli | Bacillus subtilis
